Data on 2 compounds can be found in article PMC11613329, “An Optimized Marinopyrrole A Derivative Targets 6-Phosphoglucosamine Synthetase to Inhibit Methicillin-Resistant Staphylococcus aureus” (ACS Central Science, 2024).

The structures appear in SMILES notation.

Experiment [1] concerns the target T1, 6-Phosphoglucosamine synthetase (GlmS) (Staphylococcus aureus, UniProt Q5HE49).
T1 sequence (Q5HE49 2-601): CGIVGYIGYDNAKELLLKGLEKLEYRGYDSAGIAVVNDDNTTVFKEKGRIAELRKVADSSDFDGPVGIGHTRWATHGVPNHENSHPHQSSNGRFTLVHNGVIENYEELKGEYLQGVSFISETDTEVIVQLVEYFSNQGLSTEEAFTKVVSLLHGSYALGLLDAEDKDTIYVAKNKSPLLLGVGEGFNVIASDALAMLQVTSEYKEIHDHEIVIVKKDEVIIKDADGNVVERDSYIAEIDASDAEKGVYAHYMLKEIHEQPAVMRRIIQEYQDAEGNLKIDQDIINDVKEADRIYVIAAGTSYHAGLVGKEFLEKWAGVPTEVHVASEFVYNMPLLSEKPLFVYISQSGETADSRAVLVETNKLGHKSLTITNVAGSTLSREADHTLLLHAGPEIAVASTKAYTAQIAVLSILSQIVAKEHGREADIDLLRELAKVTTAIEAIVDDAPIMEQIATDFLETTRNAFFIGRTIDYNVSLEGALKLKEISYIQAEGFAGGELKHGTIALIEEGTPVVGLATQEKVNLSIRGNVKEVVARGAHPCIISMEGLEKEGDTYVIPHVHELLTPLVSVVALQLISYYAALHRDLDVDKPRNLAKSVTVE
The experiment is described as follows: in vitro GlmS enzymatic assay, positive control. It counts as biochemical.

Experiment [2] deals with T1, 6-Phosphoglucosamine synthetase (GlmS). Briefly: SPR with purified GlmS; also thermal stability shift and enzymatic inhibition (IC50 […]). The format is binding.

With `COC(=O)/C=C/C(=O)NC[C@H](N)C(=O)O` [FMDP, N^3-(4-metoxyfumaroyl)-(S)-2,3-diaminopropanoic acid], in experiment [1], the “in vitro GlmS enzymatic assay, positive control” value was “The reported FMDP was used as a positive control”.

For `O=C(c1ccc(C(F)(F)F)cc1O)c1[nH]c(Cl)c(Cl)c1-n1c(C(=O)c2ccc(C(F)(F)F)cc2O)cc(Cl)c1Cl` [MA-D1], in experiment [2], the Kd worked out at 390 nM.
